# Tests used:
# [1] = TLC analysis of 3H-steroid metabolites in brain fractions after perfusion; assay type: in vivo, rat; details: after 0.5 min perfusion with the 3H-steroid sulphate
# Text: For the analysis of ^3H‐steroid metabolites, samples were spotted onto TLC plates for chromatography in the following solvent systems: A (for sulphated steroids), ethyl acetate:ethanol:ammonia (5 : 5 : 1, v/v); B (for free steroids) cyclohexane:n‐butyl acetate (1 : 2, v/v); C (for acetylated steroids), isooctane:ethyl acetate (13 : 7, v/v). Non‐radioactive steroid standards could be visualised by exposure to iodine vapour whereas the ^3H‐steroids were detected by placing the TLC plates in contact with imaging film for subsequent visualisation in a phosphorimager. Additional analysis of the steroid sulphates employed elution from the TLC plate in ammoniated ethanol then drying down and redissolving in sodium acetate buffer, 0.5 M, pH 5.0 for desulphation by incubation with Helix sulphatase (1 mg/mL, 40°C overnight followed by 55°C for 3 h). The resulting free steroids were adsorbed onto a 60 mg Oasis HLB® cartridge and eluted in 5 mL ethyl acetate. This eluate was dried down and analysed by TLC as above for free steroids. Further identification of ^3H‐steroid metabolites was obtained by acetylating them alongside both ^3H‐labelled and non‐radioactive standards. The TLC eluates or standards were dried down and redissolved in 200 μL pyridine. An equal volume of acetic anhydride was then added followed by incubation at 37°C for 2 h. […]
# [2] = Rat brain perfusion in situ: uptake of 3H-steroid sulphates and markers (Vd, Kin, PS); details: for K in, unidirectional transfer coefficient / PS, permeability–surface area product: 0.5 min perfusion; for K in, unidirectional transfer coefficient: corrected for vascular space (sucrose Vd), mean ± SEM, n ≥ 3; for PS, permeability–surface area product: from K in by Renkin–Crone equation with diazepam K in as flow
# Experimental: Each animal also received intraperitoneal heparin, 10 000 U/kg. Body temperature was maintained at 37°C with a heating pad.
# For analysis of free and sulphated steroids and for steryl‐sulfate sulfohydrolase (EC 3.1.6.2; trivial name steroid sulphatase) assays, both hemispheres were perfused, via right and left common carotid arteries, and 0.8 mM MgCl2 replaced 0.8 mM MgSO4 in the solution. The perfusate was delivered at a constant rate of 6 mL/min for hemi‐perfusions and 12 mL/min for bilateral perfusions, maintaining a net perfusion pressure of 40–70 mm Hg.
# The remaining tissue of the right hemisphere was homogenised and samples (~50 mg) taken in triplicate (“remainder samples”). Triplicate samples of the perfusate were also taken. Samples were weighed into vials and dissolved (48 h at 20°C) in 0.5 mL Solvable before addition of 4.5 mL Optiphase 2 scintillation fluid for counting of radioactivity.
# Brain uptake was calculated as a volume of distribution V d, where V d (μL/g) = (dpm/g tissue)/(dpm/μL perfusate). The unidirectional transfer coefficients, (K in, μL/g/min), for DHEAS and for PregS were calculated from the V d at 0.5 min, corrected with the V d for the vascular space marker sucrose.
# [3] = Bilateral brain perfusion, capillary depletion and separation of free and sulphated 3H-steroids; assay type: in vivo, rat
# Experimental: Brains were bilaterally perfused for 0.5 min with ^3H‐labelled DHEAS 1.25 or 6.0 μCi (0.046 or 0.221 MBq)/mL (13.5 or 64.9 nM) or PregS 1.0 μCi (0.037 MBq)/mL (47.6 nM). The hindbrain was removed and each hemisphere homogenised in 2 vols (w/v) buffer containing (in mM) NaCl 141, KCl 4, NaH2PO4 1, CaCl2 2.8, MgCl2 1, HEPES 10, D‐glucose 10, pH 7.4. A sample of the homogenate of the whole right hemisphere was removed for scintillation counting, and the remainder retained as the whole brain homogenate.
# The left hemisphere homogenate was separated into capillary‐enriched and capillary‐depleted fractions by the method of Triguero et al. (1990). For this, an equal volume of 26% dextran (w/w) solution was added to the homogenate and a sample taken for liquid scintillation counting before centrifugation at 5300 g for 15 min at 4°C. The upper layer was taken as the capillary‐depleted fraction and the pellet as the capillary‐enriched fraction.
# Before extraction, fractions were sonicated in 5 vols ice‐cold, 5 mM potassium phosphate buffer, pH 7. Small portions (150 μL) were removed for measurement of protein content (Bradford 1976) and total radioactivity. For the latter, homogenate was solubilised (15 min, 20°C) in 10 vols Soluene then bleached (2 h, 50°C) with 0.3 vol hydrogen peroxide before counting in Ecoscint H containing Triton X‐100 (6% v/v), glacial acetic acid (0.6% v/v) and butylated hydroxytoluene (2% w/v). The remainder of each homogenate was extracted as described in detail elsewhere (Ebner et al. 2006; Sujkovic et al. 2009), to give free steroid and steroid sulphate fractions. First, homogenates were extracted into 20 vols ethanol containing acetic acid 3% (v/v). After centrifugation (28 000 g, 30 min, 25°C) to remove denatured protein, the extracts were delipidated by partitioning three times against 10 vols isooctane. Extracts were dried down under vacuum and redissolved in ethanol, which was then diluted to 20% v/v in 5 mM potassium phosphate buffer, pH 7.0 at a total volume of 20 ml. Separation of free and sulphated steroids was achieved by passage through a 60 mg Oasis MAX® cartridge. After washing the cartridge with 5 mL ethanol at 20% v/v in ammonium acetate (20 mM, pH 7), free steroids were eluted in 4 mL ethyl acetate. Passage of 20 mL ethanol at 60% v/v in formate/pyridine buffer (20 mM, pH 3) eluted any steroid glucuronides present. Finally, steroid sulphates were eluted in 30 mL 60% v/v ethanol containing ammonium carbonate 1% (w/v). To measure the radioactivity of each fraction, portions were dried down and then redissolved in Ecoscint H for counting. The remainder was dried down, redissolved in ethanol 96% v/v and stored at −20°C for subsequent analysis by TLC.
# efflux transporters = assay: Brain perfusion in situ with efflux transporter inhibitors co-perfused with 3H-steroid sulphate; assay type: in vivo, rat; details: GF120918 3 μM or MK571 50 μM co-perfused, alone or in combination; 0.5 min perfusion
# Experimental: Figure 3 Effect of the efflux inhibitors GF120918 (3 μM) and MK571 (50 μM), alone or in combination, on the brain uptake of either ^3H‐dehydroepiandrosterone sulphate (DHEAS) or ^3H‐pregnenolone sulphate (PregS) after 0.5 min perfusion. […] All values mean ± SEM, n = 3. The effect of 0.5 mM of the corresponding unlabelled steroid sulphate (SS) in addition to the inhibitors is also shown. […] The inhibitors GF120918 and MK571 were dissolved in dimethylsulphoxide to a maximum final concentration of 0.8% (v/v) in the perfusate.
# [4] = after 0.5 min bilateral perfusion, mean ± SEM, n = 5
structure (smiles),measurement,setting,value
"CC(=O)[C@H]1CCC2C3CC=C4C[C@@H](OS(=O)(=O)O)CC[C@]4(C)C3CC[C@@]21C (stereo partly drawn) [PregS, pregnenolone sulphate]",metabolism in brain fractions,[1],no further metabolism of PregS beyond the liberation of free steroid pregnenolone
same,"K in, unidirectional transfer coefficient",[2]; Cerebellum,256.8 ± 43.7 µL/g/min
same,"PS, permeability–surface area product",[2]; Cerebellum,392.6 ± 103.4 µL/g/min
same,"K in, unidirectional transfer coefficient",[2]; Hippocampus,292.1 ± 24.2 µL/g/min
same,"PS, permeability–surface area product",[2]; Hippocampus,303.5 ± 26.0 µL/g/min
same,"K in, unidirectional transfer coefficient",[2]; Hypothalamus,277.6 ± 48.8 µL/g/min
same,"PS, permeability–surface area product",[2]; Hypothalamus,295.8 ± 54.8 µL/g/min
same,"K in, unidirectional transfer coefficient",[2]; Medulla,196.4 ± 39.5 µL/g/min
same,"PS, permeability–surface area product",[2]; Medulla,328.6 ± 117.5 µL/g/min
same,position of log PS in plot against cLog Poct relative to the line for passively permeating compounds,"[2]; PS from K in as slope of Vd against time 0.25 to 0.5 min, implies net efflux",below the 95% confidence limits of the line of best fit for passively permeating compounds
same,"K in, unidirectional transfer coefficient",[2]; Parietal cortex,351.5 ± 9.8 µL/g/min
same,"PS, permeability–surface area product",[2]; Parietal cortex,377.2 ± 11.3 µL/g/min
same,"K in, unidirectional transfer coefficient",[2]; Remainder of brain tissue,311.2 ± 20.8 µL/g/min
same,"PS, permeability–surface area product",[2]; Remainder of brain tissue,326.5 ± 22.9 µL/g/min
same,"K in, unidirectional transfer coefficient",[2]; Striatum,328.6 ± 41.9 µL/g/min
same,"PS, permeability–surface area product",[2]; Striatum,351.5 ± 48.1 µL/g/min
same,"K in, unidirectional transfer coefficient",[2]; Sup. colliculus,404.9 ± 30.4 µL/g/min
same,"PS, permeability–surface area product",[2]; Sup. colliculus,419.6 ± 32.5 µL/g/min
same,"V d, corrected for sucrose space (vascular volume), control","[2]; rat, in vivo",165.63 ± 10.40 µL/g
same,time at which brain uptake (Vd) reached a maximum,"[2]; rat, in vivo",≤ 1 min
same,radioactivity in capillary fraction,[3]; [4],1856 ± 245 dpm/mg protein
same,radioactivity in parenchyma fraction,[3]; [4],1988 ± 328 dpm/mg protein
same,recovery of total homogenate radioactivity into capillary fraction,[3]; [4],8.8 ± 1.8%
same,recovery of total homogenate radioactivity into parenchyma fraction,[3]; [4],68.0 ± 10.0%
same,"percentage of 3H-label as free steroid, parenchyma versus capillary","[3]; after 0.5 min perfusion, Fig. 4, p < 0.02",significantly higher percentage of the free steroid in the parenchyma than in the brain capillaries
same,desulphation on uptake into brain,"[3]; within 0.5 min of uptake, brain perfusion in situ",> 50%
"CN(C)C(=O)CCSC(SCCC(=O)O)c1cccc(/C=C/c2ccc3ccc(Cl)cc3n2)c1 (stereo not drawn) [MK571, 3‐[[[3‐[(1E)‐2‐(7‐Chloro‐2‐quinolinyl)ethenyl]phenyl][[3‐(dimethylamino)‐3‐oxopropyl]thio]methyl]thio]propanoic acid]",effect on brain uptake of 3H-DHEAS,efflux transporters,significant decrease in uptake
same,effect on brain uptake of 3H-PregS,efflux transporters,significant decrease in uptake
"COc1cc2c(cc1OC)CN(CCc1ccc(NC(=O)c3cccc4c(=O)c5cccc(OC)c5[nH]c34)cc1)CC2.Cl [GF120918, 9,10‐dihydro‐5‐methoxy‐9‐oxo‐N‐[4‐[2‐(1,2,3,4‐tetrahydro‐6,7‐dimethoxy‐2‐isoquinolinyl)ethyl]phenyl]‐4‐acridine‐carboxamide hydrochloride]",effect on brain uptake of 3H-DHEAS,efflux transporters,significant decrease in uptake
same,effect on brain uptake of 3H-PregS,efflux transporters,significant decrease in uptake
